Measurements reported in patent publication US11116210B2 (priority 2017, dated 2021).

Test system: Female mosquitoes, Aedes aegypti
Experiment: Y-tube olfactometer insect repellency assay
Assay type: in vivo
Parameters: key to Significance (attraction vs Control): NS—not significant; *, ** - significantly different; *, ** - significantly different
Conditions: 98%

CCN(CC)C(=O)c1cccc(C)c1 [DEET, N,N-diethyl-3-methylbenzamide]
insect repellency, in words: strongest repellency | Significance (attraction vs Control) (vs mineral oil control): **
